Measurements published in patent US6881719B2, “β-turn peptidomimetic cyclic compounds” (McGill University, priority 2000, dated 2005).

Tests used:
cell surface TrkA = target: T1, cell surface TrkA (Homo sapiens, UniProt P04629); assay: FACScan competition of mAb 5C3 binding on 4-3.6 cells; conditions: for % Maximal binding of mAb 5C3: mAb 1 nM
T1 construct: expressed in transfected cells
Excerpt: (§1) The 4-3.6 cells are B104 cells stably transfected with human trkA cDNA, and express equal levels of p75 and TrkA (TrkA+ p75+). For screening agents that activate or antagonize TrkC receptors, NIH3T3 fibroblasts were stably transfected with human TrkC cDNA. These cells respond to the ligand NT-3. For screening agents that activate or antagonize TrkA receptors, NIH3T3 fibroblasts were stably transfected with human TrkA cDNA. These cells respond to the ligand NGF.
(§2) FACScan binding assays: 4-3.6 cells (2×10^5) in FACScan binding buffer (PBS, 0.5% BSA, and 0.1% NaN3) were immunostained as described (Saragovi et al., 1998). Saturating anti-TrkA mAb 5C3, or anti-p75 mAb MC192, or control non-binding IgGs were added to cells for 1 hour at 4° C., in the presence or absence of D3 as competitor. Excess primary antibody was washed off, and cells were immunostained with fluorescinated goat-anti-mouse IgG secondary antibody. Cells were acquired on a FACScan and mean channel fluorescence of bell-shaped histograms were analyzed using the LYSIS II program.

p75 NGF receptor subunit = target: T2, p75 NGF receptor subunit (Rattus norvegicus, UniProt P07174); assay: FACScan competition of anti-p75 mAb MC192 binding on 4-3.6 cells; conditions: mAb 1 nM; competitor 40 μM
T2 construct: B104 rat neuroblastomas express p75 receptors; endogenous in cells
T2 sequence (P07174 30-425): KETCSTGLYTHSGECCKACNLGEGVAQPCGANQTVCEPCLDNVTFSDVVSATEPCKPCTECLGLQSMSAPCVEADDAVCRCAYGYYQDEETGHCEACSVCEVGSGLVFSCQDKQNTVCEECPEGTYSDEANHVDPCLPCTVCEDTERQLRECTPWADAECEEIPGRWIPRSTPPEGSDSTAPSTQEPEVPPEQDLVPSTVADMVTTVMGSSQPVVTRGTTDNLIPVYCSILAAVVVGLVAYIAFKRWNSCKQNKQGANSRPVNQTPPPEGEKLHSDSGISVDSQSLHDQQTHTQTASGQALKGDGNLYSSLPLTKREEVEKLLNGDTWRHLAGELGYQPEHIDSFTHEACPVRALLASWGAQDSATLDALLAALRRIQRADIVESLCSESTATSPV
Excerpt: as §1, §2

TrkA-ECD = target: T3, TrkA-ECD (Homo sapiens, UniProt P04629); assay: ELISA competition of mAb 5C3 binding to immobilized TrkA-ECD; conditions: for % Binding of mAb 5C3 to TrkA-ECD: mAb 5C3 2 nM
T3 construct: pure soluble TrkA extracellular domain (TrkA-ECD) produced in baculovirus; made in house
T3 sequence (P04629 33-423 limits assumed): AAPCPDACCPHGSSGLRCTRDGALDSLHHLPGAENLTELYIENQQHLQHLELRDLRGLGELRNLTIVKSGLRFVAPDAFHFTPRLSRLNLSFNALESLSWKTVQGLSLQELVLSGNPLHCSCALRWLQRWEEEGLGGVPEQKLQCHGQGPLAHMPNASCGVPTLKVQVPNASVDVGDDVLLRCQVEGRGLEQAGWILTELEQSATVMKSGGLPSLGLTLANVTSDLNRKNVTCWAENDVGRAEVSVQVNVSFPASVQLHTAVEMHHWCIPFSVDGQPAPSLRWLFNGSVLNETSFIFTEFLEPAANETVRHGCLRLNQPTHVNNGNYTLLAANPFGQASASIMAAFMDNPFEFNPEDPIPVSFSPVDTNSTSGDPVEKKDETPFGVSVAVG
Experimental: Direct binding studies: were done as described (Saragovi et al., 1998) using 6 ng/well of recombinant baculovirus TrkA-extracellular domain protein (TrkA-ECD) or control bovine serum albumin (BSA, Fraction V, Boehringer Mannheim) immobilized onto 96-well microtest plates. Wells were blocked with binding buffer (BB: PBS with 1% BSA) for 1 hour. Then, 50 ng/well of biotinylated D3 were added as primary reagent in BB for 40 min in the absence or presence of excess non-biotinylated D3 as competitor. Wells were washed 5 times with BB, and horseradish peroxidase (HRP)-coupled avidin (Sigma) was added as secondary reagent for 30 min. Plates were washed in BB, and peroxidase activity was determined colorimetrically using 2,2-azinobis (3-ethylbenzthiazoline sulfonic acid) (ABTS, Sigma). The optical density (OD) was measured at 414 nm in a Microplate reader (Bio-Rad). Assays were repeated at least three times, n=4.
Binding Competition: studies were as described for direct binding assays to TrkA-ECD, except that as primary reagent 50 ng anti-TrkA mAb 5C3/well were added in BB, in the presence or absence of D3 or controls as competitors as described (Saragovi et al., 1998). Wells were washed 5 times with BB, and HRP-coupled goat anti-mouse was added as secondary reagent for 30 min. Plates were washed in BB, and peroxidase activity were determined. Assays were repeated at least three times, n=4.

septal neuronal cultures = assay: ChAT activity in septal neuronal cultures; assay type: cell-based, rat; conditions: day 8
Experimental: Cell cultures were established from the septal area of 17-day-old rat embryos. In brief, tissue was incubated in PBS containing trypsin and DNase. Tissue pieces then were mechanically dissociated. After centrifugation, the pellet was suspended in Leibovitz's L-15 medium. Cells were plated onto 96-multiwell NUNC dishes (10^5 cells/well) coated with poly-D-lysine (5 μg/ml). Pure cultures of septal neurons were treated 1 day after plating. Drugs, prepared in medium, were added directly to the cells without changing the initial medium. The incubation continued for 8 days, at which time ChAT activity was evaluated.
At day 8 of culture, the medium was aspirated, and ice-cold lysis buffer (10 mM sodium phosphate, pH 7.4/0.1% TritonX-100—Trade-mark) was added. ChAT activity assays were performed directly in the wells using Fonnum's method (Fonnum, 1975).

[1] = system: wild type NIH3T3 fibroblasts; assay: Cell survival (MTT), NIH wt; assay type: cell-based; conditions: 72 hours
Excerpt: as §1
Cell lines: 5,000 cells/well in protein-free media (PFHM-II, GIBCO, Toronto) containing 0.2% bovine serum albumin (BSA) (Crystalline fraction V, Sigma, St. Louis, Mo.) were seeded in 96 well plates (Falcon, Mississauga, Ontario). The cultures were untreated, or treated with the indicated test or control ligands. Cell viability was quantitated using the MTT assay after 56-72 hours of culture. […] The OD of untreated cells were subtracted. The higher optical density of untreated primary cultures is likely due to cellular heterogeneity and to endogenous production of limiting amounts of growth factors.

DRG neuronal cultures = assay: Morphometric analysis of DRG dissociated neurons (neurite outgrowth); assay type: cell-based, rat; conditions: 8 days
Experimental: In FIG. 1 primary neuronal DRG cultures were treated as indicated for 8 days, and cell differentiation was studied morphometrically. Magnification 60×. Pictures representative of 3 independent experiments.
Fetal rat DRG primary cultures were established from Sprague Dawley day 17 rat embryos. All ganglia were dissected and dissociated first enzymatically with trypsin and then mechanically. Dissociated cells were cultured (10^5 cells/well) in 96 well plates pre-coated with collagen, and grown for a total of 8 days in Neuro Basal Medium containing N2 supplement (GIBCO, Toronto), antibiotics, and L-glutamine. These DRG cultures are ˜85% TrkA-expressing and are heavily dependent on TrkA signals for survival.
The effect of D3 on TrkA-mediated cellular differentiation was assessed using two independent assays: morphometric analysis of DRG dissociated neurons and induction of ChAT activity in septal neuronal cultures.

T1 sequence (P04629 33-796): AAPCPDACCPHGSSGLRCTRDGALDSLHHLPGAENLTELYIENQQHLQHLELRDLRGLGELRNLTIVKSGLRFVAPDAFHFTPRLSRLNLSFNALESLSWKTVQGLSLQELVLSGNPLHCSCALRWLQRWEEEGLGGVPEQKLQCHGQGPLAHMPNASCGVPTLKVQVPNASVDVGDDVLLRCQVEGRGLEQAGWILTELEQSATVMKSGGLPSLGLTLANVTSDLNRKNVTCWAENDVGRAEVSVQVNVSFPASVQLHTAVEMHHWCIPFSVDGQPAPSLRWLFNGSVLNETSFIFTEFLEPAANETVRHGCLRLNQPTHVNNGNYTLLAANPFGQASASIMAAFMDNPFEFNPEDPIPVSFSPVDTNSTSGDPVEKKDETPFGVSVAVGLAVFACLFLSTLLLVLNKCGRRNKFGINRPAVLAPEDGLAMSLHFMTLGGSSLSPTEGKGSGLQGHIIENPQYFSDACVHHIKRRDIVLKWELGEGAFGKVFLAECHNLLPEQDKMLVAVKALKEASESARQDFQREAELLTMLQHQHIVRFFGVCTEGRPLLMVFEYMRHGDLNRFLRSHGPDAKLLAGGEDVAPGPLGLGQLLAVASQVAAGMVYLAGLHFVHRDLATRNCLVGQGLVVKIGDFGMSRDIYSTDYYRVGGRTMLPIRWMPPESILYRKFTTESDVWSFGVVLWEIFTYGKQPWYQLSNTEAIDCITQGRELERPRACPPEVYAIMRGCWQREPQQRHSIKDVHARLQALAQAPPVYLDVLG

Kd (cell surface TrkA; estimated from experimental conditions, read-out: Kd for D3•TrkA interactions): ~2000 nM
IC50 (cell surface TrkA; intact 4-3.6 cells, on average, read-out: IC50, decrease of mAb 5C3•TrkA interactions): 4000 nM
% Maximal binding of mAb 5C3 (cell surface TrkA; competitor 0.20 μM): 95 ± 4%
% Maximal binding of mAb 5C3 (cell surface TrkA; competitor 1 μM): 80 ± 3%
% Maximal binding of mAb 5C3 (cell surface TrkA; competitor 5 μM): 53 ± 5%
% Maximal binding of mAb 5C3 (cell surface TrkA; competitor 40 μM): 33 ± 4%
% Maximal binding of mAb MC192 (p75 NGF receptor subunit): 101 ± 2%
Kd (TrkA-ECD; calculated from the experimental IC50, read-out: Kd for D3•TrkA-ECD interactions): ~2000 nM
% Binding of mAb 5C3 to TrkA-ECD (TrkA-ECD; competitor 0.05 μM): 100 ± 14%
% Binding of mAb 5C3 to TrkA-ECD (TrkA-ECD; competitor 0.2 μM): 89 ± 8%
% Binding of mAb 5C3 to TrkA-ECD (TrkA-ECD; competitor 1 μM): 64 ± 10%
% Binding of mAb 5C3 to TrkA-ECD (TrkA-ECD; competitor 5 μM): 43 ± 12%
% Binding of mAb 5C3 to TrkA-ECD (TrkA-ECD; competitor 20 μM): 38 ± 7%
% Binding of mAb 5C3 to TrkA-ECD (TrkA-ECD; competitor 40 μM): 31 ± 4%
SMILES: NCCCC[C@@H]1NC(=O)[C@H](CCC(=O)O)NC(=O)c2cc([N+](=O)[O-])ccc2OCCC(C(=O)NCC(=O)O)NC1=O (stereo partly drawn) [D3, EKHse-G-OH]
ChAT Activity (septal neuronal cultures; compound 0.2 μM + 10 pM NGF): 0.60 ± 0.04 pmol Ach/min/well
Fold Increase (ChAT activity) (septal neuronal cultures; compound 0.2 μM + 10 pM NGF): 2.00
ChAT Activity (septal neuronal cultures; compound 0.2 μM alone): 0.37 ± 0.05 pmol Ach/min/well
Fold Increase (ChAT activity) (septal neuronal cultures; compound 0.2 μM alone): 1.23
ChAT Activity (septal neuronal cultures; compound 2 μM + 10 pM NGF): 0.76 ± 0.03 pmol Ach/min/well
Fold Increase (ChAT activity) (septal neuronal cultures; compound 2 μM + 10 pM NGF): 2.53
ChAT Activity (septal neuronal cultures; compound 2 μM alone): 0.44 ± 0.02 pmol Ach/min/well
Fold Increase (ChAT activity) (septal neuronal cultures; compound 2 μM alone): 1.47
ChAT Activity (septal neuronal cultures; compound 20 μM + 10 pM NGF): 0.79 ± 0.04 pmol Ach/min/well
Fold Increase (ChAT activity) (septal neuronal cultures; compound 20 μM + 10 pM NGF): 2.63
ChAT Activity (septal neuronal cultures; compound 20 μM alone): 0.48 ± 0.06 pmol Ach/min/well
Fold Increase (ChAT activity) (septal neuronal cultures; compound 20 μM alone): 1.56
NIH wt % Protection ([1]; agent 10 μM + 10 pM NGF): 0 ± 3%
NIH wt % Protection ([1]; agent 10 μM alone): −3 ± 5%
neurite outgrowth (DRG neuronal cultures; D3 alone): undergo neurite outgrowth in response to D3
potentiation of NGF effect on neurite outgrowth (DRG neuronal cultures; D3 with NGF): potentiates the effect of NGF
